In article PMC9182199, “Borylated 2,3,4,5-Tetrachlorophthalimide and Their 2,3,4,5-Tetrachlorobenzamide Analogues: Synthesis, Their Glycosidase Inhibition and Anticancer Properties in View to Boron Neutron Capture Therapy” (Molecules, 2022):
Like-named read-outs stand apart in the source and are kept apart here.

Assays:
[1] = tested on: almond β-glucosidase; assay: Glycosidase inhibition, laboratory 1: almond β-glucosidase; type: biochemical; details: methanol
From the text: (§1) The enzymes α-glucosidase (from yeast), β-glucosidases (from almond and bovine liver), α-galactosidase (from coffee beans), β-galactosidase (from bovine liver), α-mannosidase (from Jack bean), β-mannosidase (from snail), α-L-rhamnosidase (from Penicillium decumbens), α-L-fucosidase (from bovine kidney), trehalase (from porcine kidney), β-glucuronidases (from E. coli and bovine liver), amyloglucosidase (from A. niger), para-nitrophenyl glycosides, and various disaccharides were purchased from Sigma-Aldrich Co (St Louis, MO, USA).
(§2) Brush border membranes were prepared from the rat small intestine according to the method of Kessler et al. and were assayed at pH 6.8 for rat intestinal maltase using maltose. For rat intestinal maltase, porcine kidney trehalase, and A. niger amyloglucosidase activities, the reaction mixture contained 25 mM maltose and the appropriate amount of enzyme, and the incubations were performed for 10–30 min at 37 °C. The reaction was stopped by heating at 100 °C for 3 min. After centrifugation (600× g; 10 min), the resulting reaction mixture was added to the Glucose CII-test Wako (Wako Pure Chemical Ind., Osaka, Japan). The absorbance at 505 nm was measured to determine the amount of the released D-glucose. Other glycosidase activities were determined using an appropriate para-nitrophenyl glycoside as substrate at the optimum pH of each enzyme. The reaction mixture contained 2 mM of the substrate and the appropriate amount of enzyme. The reaction was stopped by addition of 400 mM Na2CO3. The released para-nitrophenol was measured spectrometrically at 400 nm. All reactions run in methanol.

[2] = tested on: bovine kidney N-acetyl-β-glucosaminidase; assay: Glycosidase inhibition, laboratory 2: N-acetyl-β-glucosaminidase; type: biochemical; details: water
Method: (§3) All enzymes and para-nitrophenyl substrates were purchased from Sigma. Enzymes were assayed at 27 °C in 0.1 M citric acid/0.2 M disodium hydrogen phosphate buffers at the optimum pH for the enzyme. The incubation mixture consisted of 10 μL enzyme solution, 10 μL of 1 mg/mL aqueous solution of extract and 50 μL of the appropriate 5 mM para-nitrophenyl substrate made up in buffer at the optimum pH for the enzyme. The reactions were stopped by addition of 70 μL 0.4 M glycine (pH 10.4) during the exponential phase of the reaction, which had been determined at the beginning using uninhibited assays in which water replaced inhibitor. Final absorbances were read at 405 nm using a Versamax microplate reader (Molecular Devices). Assays were carried out in triplicate, and the values given are means of the three replicates per assay. All reactions run in water.

[3] = tested on: bovine liver β-glucuronidase; assay: Glycosidase inhibition, laboratory 2: bovine liver β-glucuronidase; type: biochemical; details: water
Method: as §3

[4] = tested on: HT29; assay: MTT cell growth inhibition: HT29; type: cell-based; details: 72 h; for inhibition at 25 µM: Homo sapiens, HT-29, HT29 colon carcinoma, read-out: Percentage (%) Cell Growth Inhibition in response to 25 µM of Drug
Method: (§4) All test agents were prepared as stock solutions (20 mM) in dimethyl sulfoxide (DMSO) and stored at −20 °C. Cell lines used in the study included HT29 (colorectal carcinoma); U87, SJ-G2, (glioblastoma); MCF-7, (breast carcinoma); A2780 (ovarian carcinoma); H460 (lung carcinoma); A431 (skin carcinoma); Du145 (prostate carcinoma); BE2-C (neuroblastoma); MiaPaCa-2 (pancreatic carcinoma); and SMA560 (spontaneous murine astrocytoma), together with the one non-tumour-derived normal breast cell line (MCF10A). All cell lines were incubated in a humidified atmosphere 5% CO2 at 37 °C. The cancer cell lines were maintained in Dulbecco’s modified Eagle’s medium (DMEM; Sigma, Australia) supplemented with foetal bovine serum (10%), sodium pyruvate (10 mM), penicillin (100 IUmL^−1), streptomycin (100 µg mL^−1) and L-glutamine (2 mM).
(§5) Growth inhibition was determined by plating cells in duplicate in medium (100 µL) at a density of 2500–4000 cells per well in 96-well plates. On day 0 (24 h after plating), when the cells were in logarithmic growth, medium (100 µL) with or without the test agent was added to each well. After 72 h drug exposure, growth inhibitory effects were evaluated using the MTT (3-(4,5-dimethyltiazol-2-yl)-2,5-diphenyltetrazolium bromide) assay and absorbance read at 540 nm. The percentage growth inhibition was calculated at a fixed concentration of 25 µM, based on the difference between the optical density values on day 0 and those at the end of drug exposure. Each data point is the mean ± the standard error of the mean (SEM) calculated from three replicates which were performed on separate occasions and separate cell line passages.

[5] = tested on: bovine liver β-glucuronidase; assay: Glycosidase inhibition, laboratory 1: bovine liver β-glucuronidase; type: biochemical; details: methanol
From the text: as §1, §2

[6] = tested on: A2780; assay: MTT cell growth inhibition: A2780; type: cell-based; details: A2780 ovarian carcinoma; for inhibition at 25 µM / GI50: Homo sapiens; for inhibition at 25 µM: read-out: Percentage (%) Cell Growth Inhibition in response to 25 µM of Drug; for GI50: read-out: GI50 = Concentration (µM) that inhibits cell growth by 50%, dose response
Method: as §4, §5

[7] = tested on: A431; assay: MTT cell growth inhibition: A431; type: cell-based; details: A431 skin carcinoma; for inhibition at 25 µM / GI50: Homo sapiens; for inhibition at 25 µM: A-431, read-out: Percentage (%) Cell Growth Inhibition in response to 25 µM of Drug; for GI50: A-431, read-out: GI50 = Concentration (µM) that inhibits cell growth by 50%, dose response
Method: as §4, §5

[8] = tested on: U87; assay: MTT cell growth inhibition: U87; type: cell-based; details: U87 glioblastoma; for inhibition at 25 µM / GI50: Homo sapiens, U-87 MG; for inhibition at 25 µM: read-out: Percentage (%) Cell Growth Inhibition in response to 25 µM of Drug; for GI50: read-out: GI50 = Concentration (µM) that inhibits cell growth by 50%, dose response
Method: as §4, §5

[9] = tested on: porcine kidney trehalase; assay: Glycosidase inhibition, laboratory 1: trehalase; type: biochemical; details: methanol
From the text: as §1, §2

[10] = target: T1, bovine kidney α-L-fucosidase (Bos taurus, UniProt Q2KIM0); assay: Glycosidase inhibition, laboratory 1: α-L-fucosidase; type: biochemical; details: methanol
T1 construct: purchased Sigma-Aldrich Co
T1 sequence (Q2KIM0 23-468): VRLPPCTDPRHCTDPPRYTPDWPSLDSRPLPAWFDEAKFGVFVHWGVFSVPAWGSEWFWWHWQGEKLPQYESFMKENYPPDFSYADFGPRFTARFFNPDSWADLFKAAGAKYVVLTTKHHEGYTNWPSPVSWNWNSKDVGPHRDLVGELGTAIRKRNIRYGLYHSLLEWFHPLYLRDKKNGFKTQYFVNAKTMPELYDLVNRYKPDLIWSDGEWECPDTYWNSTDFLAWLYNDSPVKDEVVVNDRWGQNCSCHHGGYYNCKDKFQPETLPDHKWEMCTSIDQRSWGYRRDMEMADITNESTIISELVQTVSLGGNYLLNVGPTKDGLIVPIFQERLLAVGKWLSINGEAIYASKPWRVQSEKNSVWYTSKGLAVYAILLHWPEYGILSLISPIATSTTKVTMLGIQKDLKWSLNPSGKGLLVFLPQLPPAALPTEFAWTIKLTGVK
From the text: as §1, §2

[11] = target: rice α-glucosidase (Oryza sativa subsp. japonica, UniProt Q653V7); assay: Glycosidase inhibition, laboratory 1: rice α-glucosidase; type: biochemical; details: methanol
Chain of rice α-glucosidase (Q653V7 34-885): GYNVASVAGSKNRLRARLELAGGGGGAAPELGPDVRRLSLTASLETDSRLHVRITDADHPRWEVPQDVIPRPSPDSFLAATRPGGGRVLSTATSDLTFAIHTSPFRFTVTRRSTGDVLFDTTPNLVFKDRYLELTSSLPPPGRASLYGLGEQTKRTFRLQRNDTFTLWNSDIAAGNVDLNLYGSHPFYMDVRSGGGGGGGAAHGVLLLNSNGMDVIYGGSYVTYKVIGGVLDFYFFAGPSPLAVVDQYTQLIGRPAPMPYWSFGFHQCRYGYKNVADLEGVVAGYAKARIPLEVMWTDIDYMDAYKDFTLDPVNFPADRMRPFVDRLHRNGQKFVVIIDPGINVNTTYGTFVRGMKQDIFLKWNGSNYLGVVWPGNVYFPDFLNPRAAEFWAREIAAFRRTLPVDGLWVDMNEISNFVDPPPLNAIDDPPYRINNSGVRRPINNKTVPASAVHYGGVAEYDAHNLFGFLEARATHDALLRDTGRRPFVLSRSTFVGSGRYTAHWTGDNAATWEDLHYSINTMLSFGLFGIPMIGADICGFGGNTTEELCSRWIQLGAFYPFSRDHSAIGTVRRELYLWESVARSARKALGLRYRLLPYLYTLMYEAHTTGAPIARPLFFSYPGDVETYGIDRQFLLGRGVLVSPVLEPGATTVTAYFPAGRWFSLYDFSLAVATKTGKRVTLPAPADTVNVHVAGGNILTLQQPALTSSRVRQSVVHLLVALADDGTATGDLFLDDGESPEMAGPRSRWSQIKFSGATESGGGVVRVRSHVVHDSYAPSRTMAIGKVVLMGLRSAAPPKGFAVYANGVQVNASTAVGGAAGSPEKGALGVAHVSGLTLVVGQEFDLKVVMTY

[12] = target: T2, E. coli β-glucuronidase (Escherichia coli, UniProt P05804); assay: Glycosidase inhibition, laboratory 1: E. coli β-glucuronidase; type: biochemical; details: for inhibition at 10 µM: read-out: inhibition % at 10 μM; for inhibition at 100 µM: read-out: inhibition % at 100 μM
T2 construct: purchased Sigma-Aldrich Co
T2 sequence (P05804 whole entry): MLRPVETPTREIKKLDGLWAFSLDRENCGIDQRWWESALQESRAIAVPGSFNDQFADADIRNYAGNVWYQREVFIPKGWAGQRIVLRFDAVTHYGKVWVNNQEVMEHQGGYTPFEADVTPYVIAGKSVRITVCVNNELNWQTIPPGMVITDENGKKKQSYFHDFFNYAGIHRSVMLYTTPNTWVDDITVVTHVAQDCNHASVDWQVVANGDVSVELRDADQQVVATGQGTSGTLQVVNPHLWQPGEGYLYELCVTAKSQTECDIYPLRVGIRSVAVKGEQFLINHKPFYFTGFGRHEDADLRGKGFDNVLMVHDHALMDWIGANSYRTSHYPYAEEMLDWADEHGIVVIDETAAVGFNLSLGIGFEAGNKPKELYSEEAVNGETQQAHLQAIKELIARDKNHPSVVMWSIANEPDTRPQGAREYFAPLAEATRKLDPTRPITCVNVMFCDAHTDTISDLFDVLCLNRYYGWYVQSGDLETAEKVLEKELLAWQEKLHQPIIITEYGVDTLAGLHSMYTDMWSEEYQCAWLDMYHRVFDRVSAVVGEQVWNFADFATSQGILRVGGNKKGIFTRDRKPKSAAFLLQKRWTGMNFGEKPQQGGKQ
From the text: as §1, §2

[13] = target: T3, coffee beans α-galactosidase (Coffea arabica, UniProt Q42656); assay: Glycosidase inhibition, laboratory 1: coffee beans α-galactosidase; type: biochemical; details: methanol
T3 construct: purchased Sigma-Aldrich Co
T3 sequence (Q42656 16-378): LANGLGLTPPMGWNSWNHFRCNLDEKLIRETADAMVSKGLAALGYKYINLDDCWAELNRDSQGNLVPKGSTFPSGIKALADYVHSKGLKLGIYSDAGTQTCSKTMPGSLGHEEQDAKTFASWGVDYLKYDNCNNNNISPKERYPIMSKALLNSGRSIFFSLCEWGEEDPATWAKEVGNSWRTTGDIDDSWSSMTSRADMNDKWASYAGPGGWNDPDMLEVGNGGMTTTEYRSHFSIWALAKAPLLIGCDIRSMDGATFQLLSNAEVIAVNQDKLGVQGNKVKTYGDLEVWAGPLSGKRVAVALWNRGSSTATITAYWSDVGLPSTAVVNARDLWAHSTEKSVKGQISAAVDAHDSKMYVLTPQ
From the text: as §1, §2

Structure (SMILES)	inhibition % at 100 μM [1]	inhibition at 25 µM [4]	inhibition % at 100 μM [5]	inhibition at 25 µM ([6]; 25 µM, 72 h, MTT)	inhibition at 25 µM ([7]; 25 µM, 72 h, MTT)	inhibition at 25 µM ([8]; 25 µM, 72 h, MTT)	inhibition % at 100 μM [9]	% inhibition at ~400 μM [2]	% inhibition at ~400 μM [3]	GI50 [6]	GI50 [7]	GI50 [8]	inhibition at 100 µM ([10]; 100 μM)	inhibition at 100 µM ([11]; 100 μM)	inhibition at 100 µM ([13]; 100 μM)	further results
N[C@@H](Cc1ccc(B(O)O)cc1)C(=O)O [BPA, 4-borono-L-phenylalanine, reference compound]	^cNI ^d (0%)	14%	^cNI ^d (7.4%)	4 ± 1%	4 ± 6%	< 0%	^cNI ^d (0%)									% inhibition at ~400 μM ([2]; 400 µM): 6.7%; % inhibition at ~400 μM ([3]; 400 µM): −0.7%
N[C@@H](Cc1ccc(B(O)O)cc1)C(=O)O [^10B-BPA, reference compound]	^cNI ^d (0%)		^cNI ^d (0%)				^cNI ^d (0%)									% inhibition at ~400 μM ([2]; 400 µM): 6.3%; % inhibition at ~400 μM ([3]; 400 µM): −1%; Percentage (%) Cell Growth Inhibition in response to 25 µM of Drug ([4]; HT29 colon carcinoma): 15 ± 4%; inhibition % at 100 μM ([10]; 100 μM): ^cNI ^d (0%); Percentage (%) Cell Growth Inhibition in response to 25 µM of Drug ([6]; 25 µM, 72 h, MTT): 8 ± 4%; Percentage (%) Cell Growth Inhibition in response to 25 µM of Drug ([7]; 25 µM, 72 h, MTT): 4 ± 4%; inhibition % at 100 μM ([11]; 100 μM): ^cNI ^d(0%); Percentage (%) Cell Growth Inhibition in response to 25 µM of Drug ([8]; 25 µM, 72 h, MTT): <0%; inhibition % at 100 μM ([12]; E. coli β-glucuronidase, 100 μM, methanol): ^cNI ^d (2.4%); inhibition % at 100 μM ([13]; 100 μM): ^cNI ^d (1.2%)
CC1(C)OB(c2cccc(CN3C(=O)c4c(Cl)c(Cl)c(Cl)c(Cl)c4C3=O)c2)OC1(C)C [meta 3, 4,5,6,7-Tetrachloro-2-(3-(4,4,5,5-tetramethyl-1,3,2-dioxaborolan-2-yl)benzyl)isoindoline-1,3-dione]		53 ± 3%		70 ± 2%	48 ± 3%	70 ± 8%	^aNI ^b (0%)	17.1%	5.8%	19 ± 0.33 µM	28 ± 0.85 µM	19 ± 1.5 µM				inhibition % at 10 μM [1]: ^cNI ^d (5.0%); inhibition % at 10 μM [5]: ^cNI ^d (5.7%); inhibition at 10 µM [10]: 4.7%; inhibition at 10 µM [11]: 5.1%; inhibition at 10 µM [12]: 6.1%; inhibition at 10 µM [13]: 3.5%
CC1(C)OB(c2cccc(NC(=O)c3cc(Cl)c(Cl)c(Cl)c3Cl)c2)OC1(C)C [meta 5, 2,3,4,5-tetrachloro-N-(3-(4,4,5,5-tetramethyl-1,3,2-dioxaborolan-2-yl)phenyl)benzamide]	^aNI ^b (30.2%)	10 ± 7%	^aNI ^b (6.0%)	49 ± 4%	9 ± 9%	< 0%	^aNI ^b (0%)	30.6%	−5.7%				3.3%	45.5%	30.2%	IC50 ([12]; E. coli β-glucuronidase, methanol): 932 µM
CC1(C)OB(c2ccccc2NC(=O)c2cc(Cl)c(Cl)c(Cl)c2Cl)OC1(C)C [ortho 5, 2,3,4,5-Tetrachloro-N-(2-(4,4,5,5-tetramethyl-1,3,2-dioxaborolan-2-yl)phenyl)benzamide]		98 ± 2%		97 ± 2%	100 ± 2%	58 ± 5%		28.8%	−3.5%	16 ± 1.2 µM	11 ± 1.8 µM	25 ± 2.6 µM				inhibition % at 10 μM [1]: ^cNI ^d (11.6%); inhibition % at 10 μM [5]: ^cNI ^d (0%); inhibition at 10 µM [10]: 0%; inhibition at 10 µM [11]: 0%; inhibition at 10 µM ([12]; E. coli β-glucuronidase, 10 μM, methanol): 3.8%; inhibition % at 10 μM ([9]; 10 μM): ^cNI ^d (1.2%); inhibition at 10 µM [13]: 0%
CC1(C)OB(c2ccccc2CNC(=O)c2cc(Cl)c(Cl)c(Cl)c2Cl)OC1(C)C [ortho 8, 2,3,4,5-tetrachloro-N-(2-(4,4,5,5-tetramethyl-1,3,2-dioxaborolan-2-yl)benzyl)benzamide]		5 ± 10%	^aNI ^b (16.3%)	19 ± 10%	< 0%	< 0%	^aNI ^b (16.8%)	28.3%	−6.3%				19.9%	0%	114%	IC50 [1]: 254 µM; inhibition at 100 µM [12]: 41.7%
CC1(C)OB(c2ccc(CN3C(=O)c4c(Cl)c(Cl)c(Cl)c(Cl)c4C3=O)cc2)OC1(C)C [para 3, 4,5,6,7-Tetrachloro-2-(4-(4,4,5,5-tetramethyl-1,3,2-dioxaborolan-2-yl)benzyl)isoindoline-1,3-dione]	^aNI ^b (0.7%)	99 ± 2%	^aNI ^b (1.0%)	> 100%	85 ± 8%	> 100%	^aNI ^b (0%)	8.3%	2.1%	11 ± 1.1 µM	18 ± 2.3 µM	4.2 ± 1 µM	0%	5.6%	0.2%	inhibition at 100 µM [12]: 2.2%
